The molecules below were run on asymmetric di-methyl PABP1 in RKO cells (assay: RKO methylation assay, In Cell Western (ICW) for asymmetric di-methyl PABP1). Settings: Cellular potencies, ICW PABP1me2a.
Assay type: cell-based
Procedure, shortened: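 In-cell Western on fixed RKO cells after 48 h compound exposure: anti-asymmetric di-methyl PABP1 signal at 800 nm over DRAQ5 DNA signal at 700 nm. Percent inhibition set between DMSO wells and wells with 20 μM reference compound; IC50 curves fitted in triplicate.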

CNC[C@@H](O)COc1ccc(Cl)c(-c2nc(-c3c(C)noc3C)c(C)c(N3Cc4c(C)nn(C)c4C3)n2)c1 [Example 237-3] was tested, and the IC50 was < 5 µM.

Same assay, conditions: Homo sapiens, RKO, Cellular potencies, ICW PABP1me2a

CCOC(=O)N1CCC[C@H]1CCOc1nc(-c2cc(OC[C@H](O)CNC)ccc2Cl)nc(-c2c(C)noc2C)c1C [Example 221-3] and CCN1CCC[C@H]1CNc1nc(-c2cc(OC[C@@H](O)CNC)ccc2Cl)nc(-c2c(C)noc2C)c1C [Example 48-3] cannot be ordered by IC50: < 5 µM for the first, < 5 µM for the second.

CNCC(O)COc1ccc(Cl)c(-c2nc(NC3CC(O)(C(F)(F)F)C3)c(C)c(-c3c(C)noc3C)n2)c1 (stereo not drawn) [Example 38-3] and CNC[C@@H](O)COc1ccc(Cl)c(-c2nc(NC3CC(F)C3)c(C)c(-c3c(C)noc3C)n2)c1 (stereo partly drawn) [Example 188-3] cannot be ordered by IC50: < 5 µM for the first, < 5 µM for the second.

CNCC(O)COc1ccc(C)c(-c2nc(NC3CCOC(C)C3)c(C)c(-c3c(C)noc3C)n2)c1 (stereo not drawn) [Example 124-3] and CNC[C@@H](O)COc1ccc(Cl)c(-c2nc(N[C@@H]3CCOC3)c(C)c(-c3c(C)noc3C)n2)c1 [Example 100-3] cannot be ordered by IC50: < 5 µM for the first, < 5 µM for the second.

First: CCOC(=O)N1CCCC(Nc2nc(-c3cccc(OCC(O)CNC)c3)nc(-c3c(C)noc3C)c2C)C1 (stereo not drawn) [Example 190-1a]
Second: CNCC(O)COc1cccc(-c2nc(NC3CN(C(=O)OC)C3)c(C)c(-c3c(C)noc3C)n2)c1 (stereo not drawn) [Example 275-1a]
The IC50 of the first is lower: < 5 µM for the first, 10 to 20 µM for the second. The first is the more potent here.

CCOC(=O)N1CCC(Nc2nc(-c3cc(OC[C@H](O)CNC)ccc3Cl)nc(-c3c(C)noc3C)c2C)CC1 [Example 88-3] and CCOC(=O)N1CC[C@H](Nc2nc(-c3cc(OC[C@H](O)CNC)ccc3Cl)nc(-c3c(C)noc3C)c2Cl)C1 [Example 151-3] cannot be ordered by IC50: < 5 µM for the first, < 5 µM for the second.

First: CNCC(O)COc1cccc(-c2nc(N[C@@H]3CCOC[C@@H]3OC)c(C)c(-c3c(C)noc3C)n2)c1 (stereo partly drawn) [Example 220-1a]
Second: CNCC(O)COc1cccc(-c2nc(N[C@@H]3CCNC3)c(C)c(-c3c(C)noc3C)n2)c1 (stereo partly drawn) [Example 307-1a]
The IC50 of the first is lower: < 5 µM for the first, 10 to 20 µM for the second. The first is the more potent here.

CNCC(O)COc1cccc(-c2nc(-c3c(C)noc3C)c(C)c(N(C)C3CCOCC3)n2)c1 (stereo not drawn) [Example 34-1a] and CCc1onc(C)c1-c1nc(-c2cccc(OCC(O)CNC)c2)nc(NC2CCOCC2)c1C (stereo not drawn) [Example 276-1a] cannot be ordered by IC50: < 5 µM for the first, < 5 µM for the second.

CNCC(O)COc1cccc(-c2nc(-c3cn(C)cn3)cc(N(C)C3CCOCC3)n2)c1 (stereo not drawn) [Example 501-1a] and CNCC(O)COc1cccc(-c2nc(-c3cn(C)c4ncncc34)cc(N(C)C3CCOCC3)n2)c1 (stereo not drawn) [Example 485-1a] cannot be ordered by IC50: < 5 µM for the first, < 5 µM for the second.

Compared with CNC[C@@H](O)COc1cccc(-c2nc(-c3c(C)noc3C)c(C)c(-c3cn(S(C)(=O)=O)c4ncncc34)n2)c1 [Example 156-1a], CNCC(O)COc1cccc(-c2nc(OCC3CCN(S(C)(=O)=O)CC3)c(C)c(-c3c(C)noc3C)n2)c1 (stereo not drawn) [Example 286-1a] is lower in IC50: 5 to 10 µM for the first, < 5 µM for the second.

Compared with CNCC(O)COc1cccc(-c2nc(N3CCOCC3)c(F)c(N(C)C3CCOCC3)n2)c1 (stereo not drawn) [Example 500-1a], CNCC(O)COc1cccc(-c2nc(-c3cnc4n3CCNC4)cc(N(C)C3CCOCC3)n2)c1 (stereo not drawn) [Example 563-1a] is higher in IC50: < 5 µM for the first, 10 to 20 µM for the second. The first is the more potent here.

CNC[C@@H](O)COc1ccc(Cl)c(-c2nc(NC3CCN(C4CC4)CC3(F)F)c(C)c(-c3c(C)noc3C)n2)c1 (stereo partly drawn) [Example 292-3] and CNC[C@@H](O)COc1ccc(Cl)c(-c2nc(N[C@@H]3CCN(C4CC4)C[C@@H]3F)c(C)c(-c3c(C)noc3C)n2)c1 [Example 167-3] cannot be ordered by IC50: < 5 µM for the first, < 5 µM for the second.

First: CNCC(O)COc1cccc(-c2nc(-c3cnn(CC(C)C)c3)cc(N(C)CCC#N)n2)c1 (stereo not drawn) [Example 41-1]
Second: CNCC(O)COc1cccc(-c2nc(-c3ccnc(C(=O)NC)c3)cc(N(C)C3CCOCC3)n2)c1 (stereo not drawn) [Example 510-1a]
The IC50 of the first is higher: 10 to 20 µM for the first, 5 to 10 µM for the second. The second is the more potent here.

First: CNC[C@@H](O)COc1ccc(Cl)c(-c2nc(-c3c(C)noc3C)c(C)c(N3CCOC3=O)n2)c1 [Example 187-3]
Second: CNC[C@@H](O)COc1ccc(Cl)c(-c2nc(-c3c(C)noc3C)c(C)c(N3CCc4ncccc43)n2)c1 [Example 199-3]
The IC50 of the first is higher: 10 to 20 µM for the first, < 5 µM for the second.

First: CNCC(O)COc1cccc(-c2nc(N[C@@H]3CCOC3)c(C)c(N3CCN(C)[C@H](C)C3)n2)c1 (stereo partly drawn) [Example 463-1a]
Second: CNCC(O)COc1cccc(-c2nc(N[C@@H]3CCOC3)c(C)c(N3CCN(C(C)=O)[C@@H](C)C3)n2)c1 (stereo partly drawn) [Example 396-1a]
The IC50 of the first is lower: < 5 µM for the first, 10 to 20 µM for the second. The first is the more potent here.

First: CNCC(O)COc1cccc(-c2nc(N[C@@H]3CCOC3)c(C)c(N3CC4CCC(C3)O4)n2)c1 (stereo partly drawn) [Example 412-1a]
Second: CNCC(O)COc1cccc(-c2nc(N[C@@H]3CCOC3)c(C)c(N3CC[C@H](N(C)C)C3)n2)c1 (stereo partly drawn) [Example 368-1a]
The IC50 of the first is higher: 10 to 20 µM for the first, < 5 µM for the second. The second is the more potent here.

CNC[C@@H](O)COc1ccc(Cl)c(-c2nc(-c3c(C)noc3C)c(C)c(N3Cc4cccc(F)c4C3)n2)c1 [Example 267-3] and CNC[C@@H](O)COc1ccc(Cl)c(-c2nc(-c3c(C)noc3C)c(C)c(N3Cc4c(C)nn(C)c4C3)n2)c1 [Example 236-3] cannot be ordered by IC50: < 5 µM for the first, < 5 µM for the second.

First: CNCC(O)COc1cccc(-c2nc(-c3c(C)noc3C)c(C)c(N3CC(NC(=O)OC)C3)n2)c1 (stereo not drawn) [Example 12-3]
Second: CNCC(O)COc1cccc(-c2nc(-c3c(C)noc3C)c(C)c(N3CCC[C@H](N(C)C(=O)OC)C3)n2)c1 (stereo partly drawn) [Example 15-3]
The IC50 of the first is lower: < 5 µM for the first, 5 to 10 µM for the second. The first is the more potent here.

CNC[C@@H](O)COc1ccc(Cl)c(-c2nc(-c3c(C)noc3C)c(C)c(N(C)[C@H]3CC[C@@H](OC)C3)n2)c1 [Example 213-3] and CNC[C@@H](O)COc1ccc(Cl)c(-c2nc(NC3CC(C)C3)c(C)c(-c3c(C)noc3C)n2)c1 (stereo partly drawn) [Example 230-3] cannot be ordered by IC50: < 5 µM for the first, < 5 µM for the second.

CNCC(O)COc1cc(Cl)cc(-c2nc(C(=O)N(C)CC3CCOCC3)cc(N(C)C3CCOCC3)n2)c1 (stereo not drawn) [Example 577-1a] and CNCC(O)COc1cccc(-c2nc(N[C@@H]3CCOC3)c(C)c(N3CCC4(CCOCC4)C3)n2)c1 (stereo partly drawn) [Example 462-1a] fall in the same range of IC50: 10 to 20 µM for the first, 10 to 20 µM for the second.

First: CNCC(O)COc1cccc(-c2nc(N[C@@H]3COC(=O)C3)c(C)c(-c3c(C)noc3C)n2)c1 (stereo partly drawn) [Example 268-1a]
Second: CNCC(O)COc1cccc(-c2nc(N[C@H]3C[C@H](C(C)(C)O)C3)c(C)c(-c3c(C)noc3C)n2)c1 (stereo partly drawn) [Example 231-1a]
The IC50 of the first is higher: 10 to 20 µM for the first, < 5 µM for the second. The second is the more potent here.

CNCC(O)COc1cccc(-c2nc(-c3c(C)noc3C)c(C)c(N3CCO[C@H](CO)C3)n2)c1 (stereo partly drawn) [Example 125-1a] and CC[C@@H]1CN(c2nc(-c3cccc(OCC(O)CNC)c3)nc(-c3c(C)noc3C)c2C)CCN1S(=O)(=O)CC (stereo partly drawn) [Example 152-1a] cannot be ordered by IC50: < 5 µM for the first, < 5 µM for the second.

First: CNCC(O)COc1cccc(-c2nc(NC3CCN(C(=O)OC)CC3)cc(-c3c(C)noc3C)n2)c1 (stereo not drawn) [Example 102-1a]
Second: CNC[C@@H](O)COc1cccc(-c2nc(NC3CCN(C(=O)OC)CC3)cc(-c3c(C)nnn3C)n2)c1 [Example 278-3]
The IC50 of the first is lower: < 5 µM for the first, 10 to 20 µM for the second. The first is the more potent here.

CNC[C@@H](O)COc1ccc(Cl)c(-c2nc(N[C@@H]3CO[C@@H](C)C3)c(Cl)c(-c3c(C)noc3C)n2)c1 [Example 181-3] and CNC[C@@H](O)COc1ccc(Cl)c(-c2nc(NC3CCOCC3)c(C)c(-c3c(C)noc3C)n2)c1 [Example 127-3] cannot be ordered by IC50: < 5 µM for the first, < 5 µM for the second.

CNC[C@H](O)COc1ccc(Cl)c(-c2nc(-c3c(C)noc3C)c(C)c(N3CCN(C)C(C(F)F)C3)n2)c1 (stereo partly drawn) [Example 74-3] and CNC[C@@H](O)COc1ccc(Cl)c(-c2nc(N[C@H]3CCN(C4CC4)[C@@H](C)C3)c(C)c(-c3c(C)noc3C)n2)c1 [Example 170-3] cannot be ordered by IC50: < 5 µM for the first, < 5 µM for the second.

First: CNC[C@@H](O)COc1ccc(C(F)(F)F)c(-c2nc(-c3c(C)noc3C)c(C)c(N3Cc4cncnc4C3)n2)c1 [Example 247-3]
Second: CNCC(O)COc1cccc(-c2nc(Nc3cc(C)on3)c(C)c(-c3c(C)noc3C)n2)c1 (stereo not drawn) [Example 233-1a]
The IC50 of the first is lower: < 5 µM for the first, 10 to 20 µM for the second. The first is the more potent here.

CNCC(O)COc1cccc(-c2nc(-c3c(C)noc3C)c(C)c(N3CCN(C(=O)OCCOC)CC3)n2)c1 (stereo not drawn) [Example 134-1a] and CCOC(=O)N1CCOC[C@@H]1CNc1nc(-c2cccc(OC[C@@H](O)CNC)c2)nc(-c2c(C)noc2C)c1C [Example 278-1a] cannot be ordered by IC50: < 5 µM for the first, < 5 µM for the second.

CNCC(O)COc1cccc(-c2nc(NCC3CCN(C(=O)C4CC4)CC3)c(C)c(-c3c(C)noc3C)n2)c1 (stereo not drawn) [Example 249-1a] and CNCC(O)COc1cccc(-c2nc(N[C@@H]3CCN(C4CC4)C[C@@H]3F)c(C)c(-c3c(C)noc3C)n2)c1 (stereo partly drawn) [Example 260-1a] cannot be ordered by IC50: < 5 µM for the first, < 5 µM for the second.

First: CNCC(O)COc1cccc(-c2nc(-c3c(C)noc3C)cc(N3CCN(C(C)=O)C[C@H]3C)n2)c1 (stereo partly drawn) [Example 39-1a]
Second: CNCC(O)COc1cccc(-c2nc(NC3CC(C(=O)OC)C3)cc(-c3c(C)noc3C)n2)c1 (stereo not drawn) [Example 45-1a]
The IC50 of the first is higher: 5 to 10 µM for the first, < 5 µM for the second. The second is the more potent here.

CNCC(O)COc1ccc(Cl)c(-c2nc(NC3CC4(C3)CN(C(=O)OC)C4)c(C)c(-c3c(C)noc3C)n2)c1 (stereo not drawn) [Example 45-3] and CNC[C@@H](O)COc1ccc(Cl)c(-c2nc(N[C@H]3CCN(C(=O)OC)[C@H](C)C3)c(C)c(-c3c(C)noc3C)n2)c1 [Example 102-3] cannot be ordered by IC50: < 5 µM for the first, < 5 µM for the second.

CNC[C@@H](O)COc1ccc(F)c(-c2nc(N[C@H]3CCN(C4CC4)C[C@H]3F)c(C)c(-c3c(C)noc3C)n2)c1 [Example 98-3] and CNC[C@@H](O)COc1ccc(Cl)c(-c2nc(N[C@@H]3CCN(C(=O)OC)[C@@H](C)C3)c(C)c(-c3c(C)noc3C)n2)c1 [Example 101-3] cannot be ordered by IC50: < 5 µM for the first, < 5 µM for the second.

First: CNCC(O)COc1ccc(Cl)c(-c2nc(O[C@H]3CCN(C(=O)OC)[C@@H](C)C3)c(C)c(-c3c(C)noc3C)n2)c1 (stereo partly drawn) [Example 36-3]
Second: CNCC(O)COc1cccc(-c2nc(Nc3cncnc3)cc(-c3c(C)noc3C)n2)c1 (stereo not drawn) [Example 21-1a]
The IC50 of the first is lower: < 5 µM for the first, 5 to 10 µM for the second.

CNCC(O)COc1cccc(-c2nc(N[C@@H]3CCOC3)c(C)c(N3CCN(CC(F)F)CC3)n2)c1 (stereo partly drawn) [Example 458-1a] and CNCC(O)COc1cccc(-c2nc(N[C@@H]3CCOC3)c(C)c(N3CCN(S(C)(=O)=O)CC3)n2)c1 (stereo partly drawn) [Example 434-1a] cannot be ordered by IC50: < 5 µM for the first, < 5 µM for the second.

CNCC(O)COc1cccc(-c2nc(N[C@@H]3CCOC3)c(C)c(-c3ccncc3)n2)c1 (stereo partly drawn) [Example 332-1a] showed an IC50 of 10 to 20 µM.
